Consider 17 molecules from patent publication US11708348B2, “Protease inhibitors for treatment of coronavirus infections” (The Scripps Research Institute, priority 2021, dated 2023).

What is called EC50 is the concentration needed to bring the measured effect to its halfway point.

For the first assay, the system named is SARS-CoV-2 strain USA-WA1/2020. In words: microbe, parasite or virus in culture. The format is cell-based. The settings on record: HeLa-ACE2 cells, SARS-CoV-2 infection, 24 h; class symbols; read-out: EC50, uM (Hela).
As for `COc1cccc2[nH]c(C(=O)N[C@@H](CC(C)C)C(=O)N[C@@H](C[C@@H]3CCNC3=O)C(=O)COc3c(F)cccc3F)cc12` [Compound 7, N-((S)-1-(((S)-4-(2,6-difluorophenoxy)-3-oxo-1-((S)-2-oxopyrrolidin-3-yl)butan-2-yl)amino)-4-methyl-1-oxopentan-2-yl)-4-methoxy-1H-indole-2-carboxamide], the EC50 is 0.2 to 0.5 µM.

The same assay, now with this note: Severe acute respiratory syndrome coronavirus 2, HeLa-ACE2, 24 h, HeLa-ACE2 cells, SARS-CoV-2 infection, 24 h; class symbols; read-out: EC50, uM (Hela).
In the case of `O=C(N[C@@H](CCc1ccccc1)C(=O)N[C@@H](C[C@@H]1CCNC1=O)C(=O)COc1c(F)c(F)cc(F)c1F)c1cc2cc(F)ccc2[nH]1` [Compound 12, 5-fluoro-N-((S)-1-oxo-1-(((S)-3-oxo-1-((S)-2-oxopyrrolidin-3-yl)-4-(2,3,5,6-tetrafluorophenoxy)butan-2-yl)amino)-4-phenylbutan-2-yl)-1H-indole-2-carboxamide], the EC50 was 0.5 to 1 µM.
On the same count and under the same terms, with `CC(C)C[C@H](NC(=O)C(=O)Nc1ccccc1F)C(=O)N[C@H](Cc1cnc[nH]1)C(=O)COc1c(F)c(F)cc(F)c1F` [Compound 136, Nl-((S)-1-(((R)-1-(1H-imidazol-5-yl)-3-oxo-4-(2,3,5,6-tetrafluorophenoxy)butan-2-yl)amino)-4-methyl-1-oxopentan-2-yl)-N2-(2-fluorophenyl)oxalamide] the figure was 0.5 to 1 µM; with `CC(C)C[C@H](NC(=O)OCc1ccccc1)C(=O)N[C@@H](C[C@@H]1CCNC1=O)C(=O)COc1c(F)c(F)cc(F)c1F` [Compound 15, benzyl ((S)-4-methyl-1-oxo-1-(((S)-3-oxo-1-((S)-2-oxopyrrolidin-3-yl)-4-(2,3,5,6-tetrafluorophenoxy)butan-2-yl)amino)pentan-2-yl)carbamate], 0.2 to 0.5 µM.
On to `COc1cccc(NC(=O)C(=O)N[C@@H](CC(C)C)C(=O)N[C@@H](C[C@@H]2CCNC2=O)C(=O)COC(F)(F)F)c1` [Compound 188, N1-(3-methoxyphenyl)-N2-((S)-4-methyl-1-oxo-1-(((S)-3-oxo-1-((S)-2-oxopyrrolidin-3-yl)-4-(trifluoromethoxy)butan-2-yl)amino)pentan-2-yl)oxalamide], for which the EC50 was under 0.05 µM.
As for `CC(C)C[C@H](NC(=O)C(=O)NC1(C)CC1)C(=O)N[C@@H](C[C@@H]1CCCNC1=O)C(=O)COC(F)(F)F` [Compound 245, N1-((S)-4-methyl-1-oxo-1-(((S)-3-oxo-1-((S)-2-oxopiperidin-3-yl)-4-(trifluoromethoxy)butan-2-yl)amino)pentan-2-yl)-N2-(1-methylcyclo-propyl)oxalamide], the concentration for a half-maximal effect (EC50) is under 0.05 µM.
Turning to `CC(C)C[C@H](NC(=O)C(=O)NC1CCC1)C(=O)N[C@@H](C[C@@H]1CCNC1=O)C(=O)COc1c(F)c(F)cc(F)c1F` [Compound 124, N1-cyclobutyl-N2-((S)-4-methyl-1-oxo-1-(((S)-3-oxo-1-((S)-2-oxopyrrolidin-3-yl)-4-(2,3,5,6-tetrafluorophenoxy)butan-2-yl)amino)pentan-2-yl)oxalamide], the EC50 lay in the range of 0.05 to 0.2 µM.
Still for that read-out and setting: the result for `CC(C)C[C@H](NC(=O)C(=O)NC(C)(C)C(F)F)C(=O)N[C@@H](C[C@@H]1CCNC1=O)C(=O)COC(F)(F)F` [Compound 246, N1-(1,1-difluoro-2-methylpropan-2-yl)-N2-((S)-4-methyl-1-oxo-1-(((S)-3-oxo-1-((S)-2-oxopyrrolidin-3-yl)-4-(trifluoromethoxy)butan-2-yl)amino)pentan-2-yl)oxalamide] reads under 0.05 µM.

Still in this assay, the particulars now being: Severe acute respiratory syndrome coronavirus 2, HeLa-ACE2, 24 h, HeLa-ACE2 cells, SARS-CoV-2 infection, 24 h; read-out: EC50, uM (Hela).
Turning to `CC1(C)[C@@H]2[C@@H](C(=O)N[C@@H](C[C@@H]3CCNC3=O)C(=O)COC(F)(F)F)N(C(=O)c3cc(F)cc(F)c3O)C[C@@H]21` [Compound 594, (1R,2S,5S)-3-(3,5-difluoro-2-hydroxybenzoyl)-6,6-dimethyl-N-((S)-3-oxo-1-((S)-2-oxopyrrolidin-3-yl)-4-(trifluoromethoxy)butan-2-yl)-3-azabicyclo-[3.1.0]hexane-2-carboxamide], the EC50 was in the range of 0.05 to 0.2 µM.
Turning to `O=C1NCC[C@H]1C[C@H](NC(=O)[C@@H]1CC2(CC2)CN1C(=O)[C@H](CO)c1ccccc1)C(=O)COC(F)(F)F` [Compound 595, (S)-5-((S)-3-hydroxy-2-phenylpropanoyl)-N-((S)-3-oxo-1-((S)-2-oxopyrrolidin-3-yl)-4-(trifluoromethoxy)butan-2-yl)-5-azaspiro[2.4]-heptane-6-carboxamide], the EC50 is 0.05 to 0.2 µM.
On to `O=C(CC(C(F)(F)F)C(F)(F)F)C(=O)N1CC2(CC2)C[C@H]1C(=O)N[C@@H](C[C@@H]1CCNC1=O)C(=O)COC(F)(F)F` [Compound 743, (S)-N-((S)-3-oxo-1-((S)-2-oxopyrrolidin-3-yl)-4-(trifluoromethoxy)butan-2-yl)-5-(5,5,5-trifluoro-2-oxo-4-(trifluoromethyl)pentanoyl)-5-azaspiro[2.4]heptane-6-carboxamide], for which the EC50 is under 0.05 µM.
`O=C1NCC[C@H]1C[C@H](NC(=O)[C@@H]1[C@H]2CCC[C@H]2CN1C(=O)[C@H](O)c1ccccc1)C(=O)COC(F)(F)F` [Compound 414, (1S,3aR,6aS)-2-((R)-2-hydroxy-2-phenylacetyl)-N-((S)-3-oxo-1-((S)-2-oxopyrrolidin-3-yl)-4-(trifluoromethoxy)butan-2-yl)octahydrocyclo-penta[c]pyrrole-1-carboxamide]: the EC50 is under 0.05 µM.
Same read-out and setting: the result for `O=C1NCC[C@H]1C[C@H](NC(=O)[C@@H]1CC2(CC2)CN1C(=O)C(O)c1cccc(F)c1)C(=O)COC(F)(F)F` (stereo partly drawn) [Compound 405, (6S)-5-(2-(3-fluorophenyl)-2-hydroxyacetyl)-N-((S)-3-oxo-1-((S)-2-oxopyrrolidin-3-yl)-4-(trifluoromethoxy)butan-2-yl)-5-azaspiro[2.4]heptane-6-carboxamide] reads 0.05 to 0.2 µM.
The same measure, in the same setting: with `O=C1NCC[C@H]1C[C@H](NC(=O)[C@@H]1CC2(CC2)CN1C(=O)C1(O)CCC1)C(=O)COC(F)(F)F` [Compound 422, (S)-5-(1-hydroxycyclobutane-1-carbonyl)-N-((S)-3-oxo-1-((S)-2-oxo-pyrrolidin-3-yl)-4-(trifluoromethoxy)butan-2-yl)-5-azaspiro[2.4]heptane-6-carboxamide] the figure was 0.05 to 0.2 µM; with `CC(C)(NC(=O)C(=O)N1CC2(CC2)C[C@H]1C(=O)N[C@@H](C[C@@H]1CCNC1=O)C(=O)COC(F)(F)F)C(F)(F)F` [Compound 590, (S)-N-((S)-3-oxo-1-((S)-2-oxopyrrolidin-3-yl)-4-(trifluoromethoxy)butan-2-yl)-5-(2-oxo-2-((1,1,1-trifluoro-2-methylpropan-2-yl)amino)acetyl)-5-azaspiro[2.4]heptane-6-carboxamide], 0.05 to 0.2 µM; with `COc1cccc2[nH]c(C(=O)N3C[C@@H]4CCC[C@@H]4[C@H]3C(=O)N[C@@H](C[C@@H]3CCNC3=O)C(=O)COC(F)(F)F)cc12` [Compound 608, (1S,3aR,6aS)-2-(4-methoxy-1H-indole-2-carbonyl)-N-((S)-3-oxo-1-((S)-2-oxopyrrolidin-3-yl)-4-(trifluoromethoxy)butan-2-yl)octahydrocyclopenta[c]pyrrole-1-carboxamide], under 0.05 µM.

Still in this assay, the particulars now being: Severe acute respiratory syndrome coronavirus 2, HeLa-ACE2, 24 h; read-out: EC50, uM (Hela).
Consider `O=C1NCC[C@H]1C[C@H](NC(=O)[C@@H]1CC2(CC2)CN1C(=O)C(F)F)C(=O)COC(F)(F)F` [Compound 635, (S)-5-(2,2-difluoroacetyl)-N-((S)-3-oxo-1-((S)-2-oxopyrrolidin-3-yl)-4-(trifluoromethoxy)butan-2-yl)-5-azaspiro[2.4]heptane-6-carboxamide], for which the EC50 is 0.05 to 0.2 µM.
